What was measured:
HIV-1IIIB = test: Inhibition of HIV-1 IIIB replication in MT-2 cells, p24 production by ELISA; type: cell-based; settings: for fold more potent than 12 and 13: replication of HIV-1 IIIB and 94UG103, relative to 12 and 13
HIV-1 = settings: previously identified; cited from earlier work

Row | SMILES | fold more potent than 12 and 13 (HIV-1IIIB) | inhibit HIV-1 infection (HIV-1) | other results
1 | O=C(O)c1cc(-c2ccc(/C=C3\SC(=S)N(CCc4ccccc4)C3=O)o2)ccc1Br [11i, 2-Bromo-5-{5-[4-oxo-3-phenethyl-2-thioxothiazolidin-5-ylidenemethyl]furan-2-yl}-benzoic acid] |  |  | fold reduction of anti-HIV-1 activity (HIV-1IIIB; relative to unsubstituted 11a): ~ 7 fold
2 | O=C(O)c1cc(-c2ccc(/C=C3\SC(=S)N(CCc4ccccc4)C3=O)o2)ccc1Cl [11d, 2-Chloro-5-{5-[4-oxo-3-phenethyl-2-thioxothiazolidin-5-ylidenemethyl]furan-2-yl}-benzoic acid] | more than 20 fold |  | fold greater potency than 13 (HIV-1IIIB; relative to 13): ~ 25 fold
3 | Cc1ccc(-c2ccc(/C=C3\SC(=S)N(CCc4ccccc4)C3=O)o2)cc1C(=O)O [11b, 2-Methyl-5-{5-[4-oxo-3-phenethyl-2-thioxothiazolidin-5-ylidenemethyl]furan-2-yl}-benzoic acid] | more than 20 fold |  | 
4 | Cc1ccc(C)n1-c1ccc(C(=O)O)c(O)c1 [compound 12, N-(4-carboxy-3-hydroxy)phenyl-2,5-dimethylpyrrole] |  | low μM level | 
5 | O=C(O)c1cc(-n2cccc2)ccc1Cl [compound 13, N-(3-carboxy-4-chloro) phenylpyrrole] |  | low μM level | 
6 | O=C(O)c1cccc(-c2ccc(/C=C3\SC(=S)N(CCc4ccccc4)C3=O)o2)c1 [11a, 3-{5-[4-Oxo-3-phenethyl-2-thioxothiazolidin-5-ylidenemethyl]furan-2-yl}-benzoic acid] | more than 20 fold |  | 

Reference: publication PMC2802534 (Journal of medicinal chemistry, 2009)
